Laboratory results as given in patent US4965280A, “Antifungal carbinols” (E. I. Du Pont de Nemours and Company, priority 1989, dated 1990).
Values after ≈ are worked out from the molar mass of the structure shown. Read-outs that look alike come from different tables or passages of the source.

Tests used:
Plasmorpara viticola = test: Example I grape downy mildew; type: in vivo; details: read-out: disease control rating, Ex. I
Summary of the method: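 First, each compound is taken up in acetone amounting to 6% of the final volume. It is then suspended in purified water containing 250 ppm of the polyhydric alcohol ester surfactant TREM 014, at 100 or 20 ppm. Finally, the suspension is sprayed onto grape seedlings until run-off.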

[1] = system: Aspergillus fumigatus ATCC 28214; test: In vitro antifungal MIC, microtiter broth dilution; details: for MIC: Aspergillus fumigatus, ATCC28214, 24 h, read-out: MIC values, A. fumigatus, 30°, 24 hours
Venturia inaequalis = test: Example A apple scab; type: in vivo; details: read-out: disease control rating, Ex. A
Summary of the method: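 First, compounds are taken up in acetone amounting to 6% of the final volume. Next, they are suspended in purified water with 250 ppm TREM 014 at 100 or 20 ppm. Finally, seedlings of apple are sprayed until run-off.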

[2] = system: Candida albicans ATCC 11651; test: In vivo systemic Candida infection in mice, primary assay; set-up: species or system Candida albicans; CF-1 female mice; details: Candida albicans, 150 mg/kg per day, read-out: % Survival
Summary of the method: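 CF-1 female mice (20 g, 10 per group) were infected IV with 0.2 ml of 1×10^7/ml C. albicans ATCC 11651, then given test compound subcutaneously at 50 or 150 mg/kg/day at 1 and 6 h post-infection and once daily for three more days. Survival was followed for 21 days against infected untreated mice; ≥70% protection at 14 days was scored active.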

Pythium aphanadermatum = test: Example J cucumber damping off; type: in vivo; details: Pythium, 336 h; 5 kg/ha; read-out: disease control rating, Ex. J
Summary of the method: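 Seeds and soil were inoculated with a mix of sand, cereal and Pythium aphanadermatum mycelium, the fungus responsible for cucumber damping off. They were kept in a growth chamber at 30° C. for 14 days, and disease was then rated to assess control.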

Pyricularia oryzae = test: whole plant or invertebrate; type: in vivo; details: Pyricularia oryzae, 120 h; for pest or weed control at 100 ppm: read-out: disease control rating, Ex. E, 100 PPM
[3] = system: Erysiphe graminis f. sp. tritici; test: Example D wheat powdery mildew; type: in vivo; details: Blumeria graminis, 144 h, read-out: disease control rating, Ex. D
Summary of the method: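 First, compound taken up in acetone, 6% of the end volume. Next, suspended in water with 250 ppm polyhydric alcohol esters at 100 or 20 ppm. Last, applied to wheat seedlings until run-off.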

Rhizoctonia solani [4] = test: Example F rice sheath blight; type: in vivo; details: Rhizoctonia solani, 144 h, read-out: disease control rating, Ex. F
Summary of the method: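 Application rates were 100 or 20 ppm, delivered as a foliar spray to the point of run-off on rice seedlings. The formulation used 6% acetone in water with 250 ppm surfactant.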

Rhizoctonia solani [5] = test: Example K cotton blight; type: in vivo; details: 336 h, 5 kg/ha, read-out: disease control rating, Ex. K
Experimental: […] Seeds and soil were then inoculated with a mixture of sand, cereal and mycelium of the fungus Rhizoctonia solani, causal agent of cotton blight, and incubated in a growth chamber at 30° C. for 14 days. Disease ratings were then made.

[6] = system: Candida albicans ATCC 11651; test: In vitro antifungal MIC, microtiter broth dilution; details: for MIC: Candida albicans, ATCC11651, 24 h, read-out: MIC values, C. albicans, 30°, 24 hours
Puccinia recondita = test: Example G wheat leaf rust; type: in vivo; details: read-out: disease control rating, Ex. G
[7] = system: Fusarium oxysporum f. sp. cucumerinum; test: Example L cucumber wilt; type: in vivo; details: 336 h, 5 kg/ha, read-out: disease control rating, Ex. L
Experimental: […] Seeds and soil were then inoculated with a mixture of sand, cereal and mycelium of the fungus Fusarium oxysporum f. sp. cucumerinum, causal agent of cucumber wilt, and incubated in a growth chamber at 30° C. for 14 days. Disease ratings were then made.

Botrytis cinerea = test: Example C bean grey mold; type: in vivo; details: Botrytis cinerea, 24 h, read-out: disease control rating, Ex. C
Summary of the method: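 At 20 or 100 ppm, each compound was applied as an aqueous suspension (acetone 6% final; TREM 014 250 ppm) sprayed onto young broad bean plants to the point of run-off.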

Phytophthora infestans = test: whole plant or invertebrate; type: in vivo; details: Phytophthora infestans, in Solanum lycopersicum, read-out: disease control rating, Ex. H, 100 PPM
Sclerotium rolfsii = test: Example M southern blight; type: in vivo; details: Agroathelia rolfsii, 336 h; 5 kg/ha; read-out: disease control rating, Ex. M
Experimental: […] Seeds and soil were then inoculated with a mixture of sand, cereal and mycelium of the fungus Sclerotium rolfsii, causal agent of sourthern blight, and incubated in a growth chamber at 30° C. for 14 days. Disease ratings were then made.

[8] = system: Cercosporidium personatum; test: Example B Peanut Late Leafspot; type: in vivo; details: Nothopassalora personata, read-out: disease control rating, Ex. B
Summary of the method: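 Dose 100 or 20 ppm; vehicle acetone 6% v/v final in water + 250 ppm surfactant; applied by spraying peanut seedlings to run-off.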

Structure (SMILES): C=C(c1ccc(F)cc1)C(O)(Cn1cncn1)c1ccc(Cl)c(Cl)c1 (stereo not drawn) [Example 651, 2-(3,4-Dichlorophenyl)-3-(4-fluorophenyl)-1-(1H-1,2,4-triazol-1-yl)-3-buten-2-ol]
- pest or weed control at 100 ppm (Plasmorpara viticola): 46%
- MIC [1]: 100 mg/L (≈ 264 µM)
- pest or weed control at 20 ppm (Venturia inaequalis; 20 PPM): 67%
- responders at 150 mg/kg ([2]; ATCC11651, 168 h, day 7): 100%
- responders at 150 mg/kg ([2]; ATCC11651, 336 h, day 14): 50%
- responders at 150 mg/kg ([2]; ATCC11651, 504 h, day 21): 20%
- pest or weed control at 5000 g/ha (Pythium aphanadermatum): 0%
- pest or weed control at 20 ppm (Pyricularia oryzae; read-out: disease control rating, Ex. E, 20 PPM): 0%
- pest or weed control at 100 ppm (Pyricularia oryzae): 0%
- pest or weed control at 20 ppm ([3]; 20 PPM): 67%
- pest or weed control at 20 ppm (Rhizoctonia solani [4]; 20 PPM): 0%
- pest or weed control at 100 ppm (Rhizoctonia solani [4]): 62%
- pest or weed control at 5000 g/ha (Rhizoctonia solani [5]): 0%
- MIC [6]: 0.8 mg/L (≈ 2.12 µM)
- pest or weed control at 20 ppm (Puccinia recondita; 20 PPM): 100%
- pest or weed control at 5000 g/ha [7]: 0%
- pest or weed control at 20 ppm (Botrytis cinerea; 20 PPM): 7%
- pest or weed control at 100 ppm (Botrytis cinerea): 42%
- pest or weed control at 100 ppm (Phytophthora infestans): 0%
- pest or weed control at 5000 g/ha (Sclerotium rolfsii): 0%
- pest or weed control at 20 ppm ([8]; 20 PPM): 0%

Structure (SMILES): C=C(c1ccc(C(F)(F)F)cc1)C(O)(Cn1cncn1)c1ccc(F)cc1 (stereo not drawn) [Example 65]
- pest or weed control at 100 ppm (Plasmorpara viticola): 0%
- MIC [1]: 100 mg/L (≈ 265 µM)
- pest or weed control at 100 ppm (Venturia inaequalis): 34%
- responders at 150 mg/kg ([2]; ATCC11651, 168 h, day 7): 100%
- responders at 150 mg/kg ([2]; ATCC11651, 336 h, day 14): 70%
- responders at 150 mg/kg ([2]; ATCC11651, 504 h, day 21): 50%
- pest or weed control at 5000 g/ha (Pythium aphanadermatum): 0%
- pest or weed control at 100 ppm (Pyricularia oryzae): 30%
- pest or weed control at 100 ppm [3]: 85%
- pest or weed control at 100 ppm (Rhizoctonia solani [4]): 62%
- pest or weed control at 5000 g/ha (Rhizoctonia solani [5]): 0%
- MIC [6]: 0.2 mg/L (≈ 0.53 µM)
- pest or weed control at 100 ppm (Puccinia recondita): 100%
- pest or weed control at 5000 g/ha [7]: 0%
- pest or weed control at 100 ppm (Botrytis cinerea): 94%
- pest or weed control at 100 ppm (Phytophthora infestans): 0%
- pest or weed control at 5000 g/ha (Sclerotium rolfsii): 0%
- pest or weed control at 100 ppm [8]: 96%

Structure (SMILES): C=C(c1ccc(Cl)cc1)C(O)(Cn1cncn1)c1ccc(Cl)cc1Cl (stereo not drawn) [Example 26, 2-(2,4-Dichlorophenyl)-3-(4-chlorophenyl)-1-(1H-1,2,4-triazol-1-yl)-3-buten-2-ol]
- pest or weed control at 100 ppm (Plasmorpara viticola): 86%
- MIC values, A. fumigatus ([1]; 30°, 24 hours): 12.5 mg/L (≈ 31.7 µM)
- pest or weed control at 100 ppm (Venturia inaequalis): 100%
- responders at 150 mg/kg ([2]; ATCC11651, 168 h, day 7): 100%
- responders at 150 mg/kg ([2]; ATCC11651, 336 h, day 14): 100%
- responders at 150 mg/kg ([2]; ATCC11651, 504 h, day 21): 100%
- pest or weed control at 5000 g/ha (Pythium aphanadermatum): 0%
- pest or weed control at 100 ppm (Pyricularia oryzae): 31%
- pest or weed control at 100 ppm [3]: 86%
- pest or weed control at 100 ppm (Rhizoctonia solani [4]): 61%
- pest or weed control at 5000 g/ha (Rhizoctonia solani [5]): 25%
- MIC values, C. albicans ([6]; 30°, 24 hours): ≤ 0.4 mg/L
- pest or weed control at 100 ppm (Puccinia recondita): 97%
- pest or weed control at 5000 g/ha [7]: 25%
- pest or weed control at 100 ppm (Botrytis cinerea): 96%
- pest or weed control at 100 ppm (Phytophthora infestans): 23%
- pest or weed control at 5000 g/ha (Sclerotium rolfsii): 35%
- pest or weed control at 100 ppm [8]: 100%

Structure (SMILES): C=C(c1ccccc1)C(O)(Cn1ncnc1S)c1ccc(F)cc1 (stereo not drawn) [Example 1278]
- pest or weed control at 100 ppm (Plasmorpara viticola): 16%
- MIC [1]: > 100 mg/L
- pest or weed control at 100 ppm (Venturia inaequalis): 100%
- responders at 150 mg/kg ([2]; ATCC11651, 168 h, day 7): 0%
- responders at 150 mg/kg ([2]; ATCC11651, 336 h, day 14): 0%
- responders at 150 mg/kg ([2]; ATCC11651, 504 h, day 21): 0%
- pest or weed control at 5000 g/ha (Pythium aphanadermatum): 0%
- pest or weed control at 100 ppm (Pyricularia oryzae): 17%
- pest or weed control at 100 ppm [3]: 85%
- pest or weed control at 100 ppm (Rhizoctonia solani [4]): 36%
- pest or weed control at 5000 g/ha (Rhizoctonia solani [5]): 0%
- MIC [6]: ≤ 0.4 mg/L
- pest or weed control at 100 ppm (Puccinia recondita): 100%
- pest or weed control at 5000 g/ha [7]: 0%
- pest or weed control at 100 ppm (Botrytis cinerea): 87%
- pest or weed control at 100 ppm (Phytophthora infestans): 0%
- pest or weed control at 5000 g/ha (Sclerotium rolfsii): 0%
- pest or weed control at 100 ppm [8]: 100%
